Experimental findings from patent publication EP2951180B1, “2,6,7,8 SUBSTITUTED PURINES AS HDM2 INHIBITORS” (Merck Sharp & Dohme Corp., priority 2013, dated 2014) are described below.

For the assay, the target named is T1, HDM2 (Homo sapiens, UniProt Q00987).
T1 construct: Thioredoxin (N); made in house; host or cells: E. coli strain BL21(DE3)Rosetta
The assay can be described thus: HDM2 FRET assay (inhibition of binding of FITC labeled p53-pocket peptide to HDM2). Conditions: for IC50: read-out: FRET IC50. In a few lines:
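Displacement of FITC-p53 peptide (3 nM) from His-tagged HDM2 (0.5 nM) is measured by Tb-to-fluorescein FRET in PBS, 0.01% BSA, 0.01% Tween-20. IC50 values derive from 10-point curves.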

Setting [1] is: 0.5 nM HDM2 (residues 17 to 125), 3nM peptide, two hour incubation at room temperature.

Each structure is given as a SMILES string. Read-outs that look alike come from different tables or passages of the source.

T1 sequence (Q00987 17-125): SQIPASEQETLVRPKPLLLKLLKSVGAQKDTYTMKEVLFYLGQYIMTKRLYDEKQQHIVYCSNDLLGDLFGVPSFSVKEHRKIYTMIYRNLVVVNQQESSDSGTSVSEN

Take `Cc1cccc(-c2nc3nc(C(=O)O)nc(N4CCCCC4C4CCC4)c3n2Cc2ccc(C(F)(F)F)cc2)c1` (stereo not shown) [Example 6.95, 6-(2-cyclobutylpiperidin-1-yl)-8-(3-methylphenyl)-7-[4-(trifluoromethyl)benzyl]-7H-purine-2-carboxylic acid]: the IC50 (Table 6) worked out at 271 nM.

In the case of `Cc1cccc(-c2nc(-c3noc(=O)[nH]3)nc3nc(N4CCOC[C@@H]4C)n(C[C@H]4CC[C@H](C)CC4)c23)c1` [Example 16.34, 3-{7-[(trans-4-methylcyclohexyl)methyl]-8-[(3S)-3-methylmorpholin-4-yl]-6-(3-methylphenyl)-7H-purin-2-yl}-1,2,4-oxadiazol-5(4H)-one], the IC50 under setting [1] was found to be 503 nM.

Turning to `C[C@H]1CC[C@H](Cn2c(N3CCC4OCCC43)nc3nc(-c4noc(=O)[nH]4)nc(-c4cccc(Cl)c4)c32)CC1` (relative stereo) [Example 16.150, 3-{6-(3-chlorophenyl)-8-(hexahydro-4H-furo[3,2-b]pyrrol-4-yl)-7-[(trans-4-methylcyclohexyl)methyl]-7H-purin-2-yl}-1,2,4-oxadiazol-5(4H)-one], under setting [1], the IC50 was found to be 45 nM.

Consider `C[C@@H](Nc1nc(C(=O)O)nc2nc(N3CCCCC3C3CCCCC3)n(Cc3ccc(C(F)(F)F)cc3)c12)C1CCC1` (stereo partly drawn) [Example 9.122, 6-{[(1R)-1-cyclobutylethyl]amino}-8-(2-cyclohexylpiperidin-1-yl)-7-[4-(trifluoromethyl)benzyl]-7H-purine-2-carboxylic acid], for which the IC50 (Table 9) amounted to 4.59 nM.

For the compound `C[C@H]1CC[C@H](Cn2c(C3(F)CCCCC3)nc3nc(-c4n[nH]c(=O)o4)nc(-c4cncc(Cl)c4)c32)CC1` [Example 23.56, 5-{6-(5-chloropyridin-3-yl)-8-(1-fluorocyclohexyl)-7-[(trans-4-methylcyclohexyl)methyl] -7H-purin-2-yl}-1,3,4-oxadiazol-2(3H)-one], the IC50 (Table 23) was found to be 10.7 nM.

As for `CCCN(c1nc2nc(C(=O)O)nc(N[C@H](C)C3CCC3)c2n1Cc1ccc(C(F)(F)F)cc1)C(C)c1ccccn1` (stereo partly drawn) [Example 10.32, 6-(((R)-1-cyclobutylethyl)amino)-8-(propyl(1-(pyridin-2-yl)ethyl)amino)-7-(4-(trifluoromethyl)benzyl)-7H-purine-2-carboxylic acid], for the setting “Table 10”, the IC50 is 3.72 nM.

`CC(C)c1ccnc(-c2nc3nc(C(C)O)nc(N[C@H](C)C4CCC4)c3n2C[C@H]2CC[C@H](C)CC2)c1` (stereo partly drawn) [Example 12.6, 1-(6-{[(1R)-1-cyclobutylethyl]amino}-7-[(trans-4-methylcyclohexyl)methyl]-8-[4-(propan-2-yl)pyridin-2-yl]-7H-purin-2-yl)ethanol]: under setting [1], the IC50 is 420 nM.

Consider `CC(C)C[C@@H]1COCCN1c1nc2nc(-c3noc(=O)[nH]3)nc(-c3cccc(Cl)c3)c2n1C[C@H]1CC[C@H](C)CC1` [Example 16.40, 3-{6-(3-chlorophenyl)-7-[(trans-4-methylcyclohexyl)methyl]-8-[(3R)-3-(2-methylpropyl)morpholin-4-yl]-7H-purin-2-yl}-1,2,4-oxadiazol-5(4H)-one], for which the IC50 under setting [1] was found to be 4.59 nM.

In the case of `CC(=O)c1nc2nc(-c3noc(=O)[nH]3)nc(N[C@H](C)C3CCC3)c2n1C[C@H]1CC[C@H](C)CC1` [Example 22.32, 3-(8-acetyl-6-{[(1R)-1-cyclobutylethyl]amino}-7-[(trans-4-methylcyclohexyl)methyl] -7H-purin-2-yl)-1,2,4-oxadiazol-5(2H)-one], the IC50 (Table 22) was 25.3 nM.

Consider `C[C@@H](Nc1nc(-c2noc(=O)[nH]2)nc2nc(-c3cc(C(C)(C)O)ccn3)n(C[C@H]3CC[C@H](C)CC3)c12)C1CCC1` [Example 15.23, 3-(6-{[(1R)-1-cyclobutylethyl]amino}-8-[4-(1-hydroxy-1-methylethyl)pyridin-2-yl]-7-[(trans-4-methylcyclohexyl)methyl]-7H-purin-2-yl)-1 ,2,4-oxadiazol-5(4H)-one], for which, under setting [1], the IC50 was found to be 4.75 nM.

`Cc1cccc(-c2nc3nc(C(=O)O)nc(N4CCCC4C(C)(C)C)c3n2Cc2ccc(C(F)(F)F)cc2)c1` (stereo not shown) [Example 6.87, 6-(2-tert-butylpyrrolidin-1-yl)-8-(3-methylphenyl)-7-[4-(trifluoromethyl)benzyl]-7H-purine-2-carboxylic acid]: where the note is “read-out: inh. at 1000 nM (FRET)”, the inhibition at 1 µM was determined as 43%.

With `COCC1(N(C)c2nc3nc(-c4noc(=O)[nH]4)nc(N[C@H](C)C4CCC4)c3n2Cc2ccc(C(F)(F)F)cc2)CC1` [Example 9.89, 3-(6-{[(1R)-1-cyclobutylethyl]amino}-8-{[1-(methoxymethyl)cyclopropyl] (methyl)amino}-7-[4-(trifluoromethyl)benzyl]-7H-purin-2-yl)-1,2,4-oxadiazol-5(4H)-one], the IC50 (Table 9) was 22.6 nM.

As to `CNC(=O)c1nc(N[C@H](C)C2CCC2)c2c(n1)nc(-c1cccc(C)c1)n2Cc1ccc(C(F)(F)F)cc1` [Example 12.30, 6-{[(1R)-1-cyclobutylethyl]amino}-N-methyl-8-(3-methylphenyl)-7-[4-(trifluoromethyl)benzyl]-7H-purine-2-carboxamide], the IC50 under setting [1] is 873 nM.

As for `CC(C)c1ccnc(-c2nc3nc(CO)nc(N[C@H](C)C4CCC4)c3n2Cc2ccc(C(F)(F)F)cc2)c1` [Example 12.2, (6-{[(1R)-1-cyclobutylethyl]amino}-8-[4-(propan-2-yl)pyridin-2-yl]-7-[4-(trifluoromethyl)benzyl]-7H-purin-2-yl)methanol], under setting [1], the IC50 is 597 nM.

In the case of `CC(C)S(=O)(=O)N1CCN(c2nc3nc(-c4noc(=O)[nH]4)nc(N[C@H](C)C4CCC4)c3n2C[C@H]2CC[C@H](C)CC2)[C@H](C)C1` [Example 17.17, 3-(6-{[(1R)-1-cyclobutylethyl]amino}-7-[(trans-4-methylcyclohexyl)methyl]-8-{(2R)-2-methyl-4-[(1-methylethyl)sulfonyl]piperazin-1-yl}-7H-purin-2-yl)-1,2,4-oxadiazol-5(4H)-one], the IC50 (Table 17.2) came to 10.1 nM.

`CC[C@H]1CC[C@H](Cn2c(N3CCOCC3)nc3nc(C(=O)O)nc(N[C@H](C)C4CCC4)c32)CC1` [Example 18.19, 6-{[(1R)-1-cyclobutylethyl]amino}-7-[(trans-4-ethylcyclohexyl)methyl]-8-morpholin-4-yl-7H-purine-2-carboxylic acid]: the IC50 (Table 18) turned out to be 13.1 nM.

On to `CCC1CCC(Cn2c(-c3cc(C(C)C)ccn3)nc3nc(-c4noc(=O)[nH]4)nc(N[C@H](C)C4CCC4)c32)C1` (stereo partly drawn) [Example 18.4, 3-(6-(((R)-1-cyclobutylethyl)amino)-7-((3-ethylcyclopentyl)methyl) -8-(4-isopropylpyridin-2-yl)-7H-purin-2-yl)-1,2,4-oxadiazol-5(4H)-one], for which, under “Table 18”, the IC50 came to 131 nM.

Turning to `Cc1cccc(-c2nc3nc(C(=O)O)nc(NC4CCC(C)CC4C)c3n2Cc2ccc(C(F)(F)F)cc2)c1` (stereo not shown) [Example 6.33, 6-[(2,4-dimethylcyclohexyl)amino]-8-(3-methylphenyl)-7-[4-(trifluoromethyl)benzyl]-7H-purine-2-carboxylic acid], where the note is “Table 6”, the IC50 came to 305 nM.

`CC(CN1CCCC1)CN(C)c1nc2nc(-c3noc(=O)[nH]3)nc(N[C@H](C)C3CCC3)c2n1Cc1ccc(C(F)(F)F)cc1` (stereo partly drawn) [Example 9.104, 3-(6-{[(1R)-1-cyclobutylethyl]amino}-8-[methyl(2-methyl-3-pyrrolidin-1-ylpropyl)amino]-7-[4-(trifluoromethyl)benzyl]-7H-purin-2-yl)-1,2,4-oxadiazol-5(4H)-one]: under “Table 9”, the IC50 was found to be 63.2 nM.

With `C[C@@H](Nc1nc(C(=O)O)nc2nc(C(C)(C)c3ccccc3)n(C[C@H]3CC[C@H](C)CC3)c12)C1CCC1` [Example 20.2, 6-{[(1R)-1-cyclobutylethyl]amino}-7-[(trans-4-methylcyclohexyl)methyl]-8-(1-methyl-1-phenylethyl)-7H-purine-2-carboxylic acid], the IC50 (Table 20) was found to be 3.45 nM.

Regarding `Cc1cccc(-c2nc3nc(C(=O)O)nc(NCC4CCC4)c3n2Cc2ccc(C(F)(F)F)cc2)c1` [Example 6.75, 6-[(cyclobutylmethyl)amino]-8-(3-methylphenyl)-7-[4-(trifluoromethyl)benzyl]-7H-purine-2-carboxylic acid], the IC50 (Table 6) was found to be 167 nM.

Take `COC[C@@H]1CC[C@@H](COC)N1c1nc2nc(-c3noc(=O)[nH]3)nc(-c3cccc(Cl)c3)c2n1C[C@H]1CC[C@H](C)CC1` [Example 16.149, 3-{8-[(2S,5S)-2,5-bis(methoxymethyl)pyrrolidin-1-yl]-6-(3-chlorophenyl)-7-[(trans-4-methylcyclohexyl)methyl]-7H-purin-2-yl}-1,2,4-oxadiazol-5(4H)-one]: the IC50 under setting [1] was found to be 3.77 nM.

As for `C[C@@H]1OCCN(c2nc3nc(-c4n[nH]c(=O)o4)nc(-c4cncc(Cl)c4)c3n2C[C@H]2CC[C@H](C)CC2)[C@@H]1c1ccccc1` [Example 16.130, 5-{6-(5-chloropyridin-3-yl)-7-[(trans-4-methylcyclohexyl)methyl]-8-[(2S,3R)-2-methyl-3-phenylmorpholin-4-yl]-7H-purin-2-yl}-1,3,4-oxadiazol-2(3H)-one], the IC50 under setting [1] turned out to be 28.9 nM.

Consider `C[C@@H](Nc1nc(-c2noc(=O)[nH]2)nc2nc(C3CCCC3)n(C[C@H]3CC[C@H](C)CC3)c12)C1CCC1` [Example 21.34, 3-(6-{[(1R)-1-cyclobutylethyl]amino}-8-cyclopentyl-7-[(trans-4-methylcyclohexyl)methyl]-7H-purin-2-yl)-1,2,4-oxadiazol-5(4H)-one], for which, under “Table 21”, the IC50 came out at 7.76 nM.

For `C[C@@H](Nc1nc(-c2noc(=O)[nH]2)nc2nc(N3CCCC3C[S+](C)[O-])n(C[C@H]3CC[C@H](C)CC3)c12)C1CCC1` (single isomer, unassigned) [Example 11.155], the IC50 (Table 11) is 165 nM.
